In patent publication US20100204203A1, “Chemical Compounds 637: Pyridopyrimidinediones as PDE4 Inhibitors” (priority 2007, published 2010):

Molecular target: recombinant Human Phosphodiesterase B2 (PDE4B2) (Homo sapiens, UniProt Q07343)
Experiment: Human Phosphodiesterase B2 Radiometric Assay (yttrium silicate SPA beads, [3H]cyclic AMP)
Type: biochemical
Settings: at 0.32 uM
Experimental: Human Phosphodiesterase B2 Radiometric Assay
The assay uses recombinant Human Phosphodiesterase B2 (PDE4B2) produced in house (PrAZL0163), stored at −20° C. This assay is based on the observation that 5′AMP, the product of the reaction catalysed by PDE4, binds preferentially to yttrium silicate SPA beads (Amersham Biosciences, UK) compared to the substrate, cAMP. Compounds at the appropriate concentration were preincubated at 30 C for 30 min with an assay buffer containing 50 mM HEPES (pH 7.5), 8.3 mM MgCl2, 1.7 mM EGTA, 0.01% (w/v) Brij° 35 and 0.1 mg/mL recombinant PDE4B2. The reaction was started by the addition of [3H]cyclic AMP to give a final concentration of 8 nM, and was stopped 20 minutes after the addition of the substrate by the addition of yttrium silicate SPA beads containing 18 mM Zn SO4. Bound [3H]cyclic AMP was measured using a Topcount NXT (Packard Bioscience, UK). pIC50 values (presented in Table 15) were determined using Xlfit3 curve fitting, using model 205.

Sequence of recombinant Human Phosphodiesterase B2 (PDE4B2) (Q07343 1-564 isoform Q07343-2): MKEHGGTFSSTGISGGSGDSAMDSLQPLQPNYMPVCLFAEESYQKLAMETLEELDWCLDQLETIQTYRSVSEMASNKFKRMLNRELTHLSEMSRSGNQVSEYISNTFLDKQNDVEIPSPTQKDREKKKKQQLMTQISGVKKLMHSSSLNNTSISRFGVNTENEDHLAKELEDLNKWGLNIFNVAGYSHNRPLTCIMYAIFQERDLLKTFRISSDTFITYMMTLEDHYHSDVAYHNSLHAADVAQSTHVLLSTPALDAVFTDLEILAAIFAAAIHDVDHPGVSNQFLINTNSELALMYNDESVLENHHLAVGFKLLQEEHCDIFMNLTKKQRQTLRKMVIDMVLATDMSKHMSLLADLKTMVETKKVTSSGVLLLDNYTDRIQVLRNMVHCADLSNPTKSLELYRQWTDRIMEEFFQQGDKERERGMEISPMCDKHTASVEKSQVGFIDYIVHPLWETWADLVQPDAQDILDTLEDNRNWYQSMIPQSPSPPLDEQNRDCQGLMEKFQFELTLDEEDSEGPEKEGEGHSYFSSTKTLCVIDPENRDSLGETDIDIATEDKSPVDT

Row | Structure (SMILES) | PDE4B2 (percent at a single concentration, printed in the pIC50 column) [% at 0.32 uM]
1 | CN1CCC(n2c(=O)n([C@H]3CC[C@@H](NC(=O)c4cn5cc(F)ccc5n4)CC3)c(=O)c3cc(F)cnc32)CC1 [Example 40, 6-fluoro-N-{cis-4-[6-fluoro-1-(1-methylpiperidin-4-yl)-2,4-dioxo-1,4-dihydropyrido[2,3-d]pyrimidin-3(2H)-yl]cyclohexyl}imidazo[1,2-c]pyridine-2-carboxamide] | 50

Same assay, conditions: recombinant human PDE4B2, radiometric SPA assay, 8 nM [3H]cyclic AMP; read-out: PDE4B2 pIC50 (converted)

Row | Structure (SMILES) | IC50 [nM]
2 | O=c1c2cc(F)cnc2n(-c2cccc(-c3ccc(O)cc3CN3CCOCC3)c2)c(=O)n1[C@H]1CC[C@@H](NCc2cn3c(n2)CCCC3)CC1 [Example 252, 6-Fluoro-1-[4′-hydroxy-2′-(morpholin-4-ylmethyl)biphenyl-3-yl]-3-{cis-4-[(5,6,7,8-tetrahydroimidazo[1,2-a]pyridin-2-ylmethyl)amino]cyclohexyl}pyrido[2,3-d]pyrimidine-2,4(1H,3H)-dione] | 0.398
3 | CN1CCCN(Cc2ccc(-c3cccc(-n4c(=O)n([C@H]5CC[C@@H](NC(=O)CCN6CCCCC6)CC5)c(=O)c5cc(F)cnc54)c3)cc2)CC1 [Example 293, N-{cis-4-[6-fluoro-1-{4′-[(4-methyl-1,4-diazepan-1-yl)methyl]biphenyl-3-yl}-2,4-dioxo-1,4-dihydropyrido[2,3-d]pyrimidin-3(2H)-yl]cyclohexyl}-3-piperidin-1-ylpropanamide] | 2
4 | O=c1c2cc(F)cnc2n(-c2cccc(-c3ccc(O)cc3CN3CCOCC3)c2)c(=O)n1[C@H]1CC[C@@H](NCc2cccn3ccnc23)CC1 [Example 373, 6-fluoro-1-[4′-hydroxy-2′-(morpholin-4-ylmethyl)biphenyl-3-yl]-3-{cis-4-[(imidazo[1,2-a]pyridin-8-ylmethyl)amino]cyclohexyl} pyrido[2,3-d]pyrimidine-2,4(1H,3H)-dione] | 0.158
5 | C[C@@H](O)CN(C)Cc1cc(O)ccc1-c1cccc(-n2c(=O)n([C@H]3CC[C@@H](NCc4cn5cc(F)ccc5n4)CC3)c(=O)c3cc(F)cnc32)c1 [Example 320, 6-fluoro-3-(cis-4-{[(6-fluoroimidazo[1,2-c]pyridin-2-yl)methyl]amino}cyclohexyl)-1-(4′-hydroxy-2′-{[[(2R)-2-hydroxypropyl](methyl)amino]methyl}biphenyl-3-yl)pyrido[2,3-d]pyrimidine-2,4(1H,3H)-dione] | 0.2
6 | CN(Cc1cc(O)ccc1-c1cccc(-n2c(=O)n([C@H]3CC[C@@H](NCc4cn5cc(F)ccc5n4)CC3)c(=O)c3cc(F)cnc32)c1)C1CC1 [Example 323, 1-(2′-{[cyclopropyl(methyl)amino]methyl}-4′-hydroxybiphenyl-3-yl)-6-fluoro-3-(cis-4-{[(6-fluoroimidazo[1,2-a]pyridin-2-yl)methyl]amino}cyclohexyl)pyrido[2,3-d]pyrimidine-2,4(1H,3H)-dione] | 0.251
7 | Cc1ccc2nc(CN[C@H]3CC[C@@H](n4c(=O)c5cc(F)cnc5n(-c5cccc(-c6ccc(O)cc6CN6CCOCC6)c5)c4=O)CC3)cn2c1 [Example 334, 6-fluoro-1-[4′-hydroxy-2′-(morpholin-4-ylmethyl)biphenyl-3-yl]-3-(cis-4-{[(6-methylimidazo[1,2-a]pyridin-2-yl)methyl]amino}cyclohexyl)pyrido[2,3-d]pyrimidine-2,4 (1H,3H)-dione] | 0.0631
8 | CN(C)CCc1ccc(-c2cccc(-n3c(=O)n([C@H]4CC[C@@H](NC(=O)c5cn6cc(F)ccc6n5)CC4)c(=O)c4cc(F)cnc43)c2)cc1 [Example 99, N-{cis-4-[1-{4′-[2-(dimethylamino)ethyl]biphenyl-3-yl}-6-fluoro-2,4-dioxo-1,4-dihydropyrido[2,3-d]pyrimidin-3(2H)-yl]cyclohexyl}-6-fluoroimidazo[1,2-a]pyridine-2-carboxamide] | 0.126
9 | O=c1c2cc(F)cnc2n(-c2cccc(-c3cccc(O)c3CN3CCOCC3)c2)c(=O)n1[C@H]1CC[C@@H](NCc2cn3cc(F)ccc3n2)CC1 [Example 346, 6-Fluoro-3-(cis-4-{[(6-fluoroimidazo[1,2-a]pyridin-2-yl)methyl]amino}cyclohexyl)-1-[3′-hydroxy-2′-(morpholin-4-ylmethyl)biphenyl-3-yl]pyrido[2,3-d]pyrimidine-2,4(1H,3H)-dione] | 0.126
10 | O=C(N[C@H]1CC[C@@H](n2c(=O)c3cc(F)cnc3n(-c3cccc(-c4cccc(CN5CCOCC5)c4)c3)c2=O)CC1)c1cn2cc(F)ccc2n1 [Example 13, 6-fluoro-N-{cis-4-[6-fluoro-1-[3′-(morpholin-4-ylmethyl)biphenyl-3-yl]-2,4-dioxo-1,4-dihydropyrido[2,3-d]pyrimidin-3(2H)-yl]cyclohexyl}imidazo[1,2-a]pyridine-2-carboxamide.] | 0.0631
11 | O=c1c2cc(F)cnc2n(-c2cccc(-c3ccc(O)cc3CN3CCCOCC3)c2)c(=O)n1[C@H]1CC[C@@H](NCc2cccn3ccnc23)CC1 [Example 372, 6-fluoro-1-[4′-hydroxy-2′-(1,4-oxazepan-4-ylmethyl)biphenyl-3-yl]-3-{cis-4-[(imidazo[1,2-a]pyridin-8-ylmethyl)amino]cyclohexyl}pyrido[2,3-d]pyrimidine-2,4(1H,3H)-dione] | 0.631
12 | O=C(CN1CCCCC1)N[C@H]1CC[C@@H](n2c(=O)c3cc(F)cnc3n(-c3cccc(-c4ccc(O)cc4CN4CCOCC4)c3)c2=O)CC1 [Example 333, N-{cis-4-[6-fluoro-1-[4′-hydroxy-2′-(morpholin-4-ylmethyl)biphenyl-3-yl]-2,4-dioxo-1,4-dihydropyrido[2,3-d]pyrimidin-3(2H)-yl]cyclohexyl}-2-piperidin-1-ylacetamide] | 2
13 | O=c1c2cc(F)cnc2n(-c2cccc(-c3ccccc3)c2)c(=O)n1[C@@H]1CCNC1 [Example 107, 1-biphenyl-3-yl-6-fluoro-3-[(3R)-pyrrolidin-3-yl]pyrido[2,3-d]pyrimidine-2,4(1H,3H)-dione] | 100
14 | CC(C)N1CCN(Cc2ccc(-c3cccc(-n4c(=O)n([C@H]5CC[C@@H](NC(=O)c6cn7c(n6)CCCC7)CC5)c(=O)c5cc(F)cnc54)c3)cc2)CC1 [Example 134, N-{cis-4-[6-fluoro-1-{4′-[(4-isopropylpiperazin-1-yl)methyl]biphenyl-3-yl}-2,4-dioxo-1,4-dihydropyrido[2,3-d]pyrimidin-3(2H)-yl]cyclohexyl}-5,6,7,8-tetrahydroimidazo[1,2-a]pyridine-2-carboxamide] | 0.00794
15 | Cc1cccc(C(=O)N[C@H]2CC[C@@H](n3c(=O)c4cc(F)cnc4n(-c4cccc(-c5ccc(CN6CCC(N7CCCCC7)CC6)cc5)c4)c3=O)CC2)n1 [Example 299, N-{cis-4-[1-[4′-(1,4′-bipiperidin-1′-ylmethyl)biphenyl-3-yl]-6-fluoro-2,4-dioxo-1,4-dihydropyrido[2,3-d]pyrimidin-3(2H)-yl]cyclohexyl}-6-methylpyridine-2-carboxamide] | 0.0158
16 | CC(C)N1CCN(Cc2ccc(-c3cccc(-n4c(=O)n([C@H]5CC[C@@H](NCc6c(C(F)(F)F)nn(C)c6Cl)CC5)c(=O)c5cc(F)cnc54)c3)cc2)CC1 [Example 262, 3-[cis-4-({[5-chloro-1-methyl-3-(trifluoromethyl)-1H-pyrazol-4-yl]methyl}amino)cyclohexyl]-6-fluoro-1-{4′-[(4-isopropyl-piperazin-1-yl}methyl]biphenyl-3-yl}pyrido[2,3-d]pyrimidine-2,4(1H,3H)-dione] | 0.794
17 | CN(C)C1(C(=O)N[C@H]2CC[C@@H](n3c(=O)c4cc(F)cnc4n(-c4cccc(-c5ccc(CN6CCOCC6)cc5)c4)c3=O)CC2)CC1 [Example 124, 1-(dimethylamino)-N-{cis-4-[6-fluoro-1-[4′-(morpholin-4-ylmethyl)biphenyl-3-yl]-2,4-dioxo-1,4-dihydropyrido[2,3-d]pyrimidin-3(2H)-yl]cyclohexyl}cyclopropane-carboxamide] | 0.00631
18 | C[C@@H]1COCCN1Cc1cc(O)ccc1-c1cccc(-n2c(=O)n([C@H]3CC[C@@H](NCc4cn5cc(F)ccc5n4)CC3)c(=O)c3cc(F)cnc32)c1 [Example 316, 6-fluoro-3-(cis-4-{[(6-fluoroimidazo[1,2-a]pyridin-2-yl)methyl]amino}cyclohexyl)-1-(4′-hydroxy-2′-{[(3R)-3-methylmorpholin-4-yl]methyl}biphenyl-3-yl)pyrido[2,3-d]pyrimidine-2,4(1H,3H)-dione] | 0.0316
19 | CC(C)[C@H](N)C(=O)N[C@H]1CC[C@@H](n2c(=O)c3cc(F)cnc3n(-c3cccc(-c4ccc(CN5CCCN(C)CC5)cc4)c3)c2=O)CC1 [Example 314, N-{cis-4-[6-fluoro-1-{4′-[(4-methyl-1,4-diazepan-1-yl)methyl]biphenyl-3-yl}-2,4-dioxo-1,4-dihydropyrido[2,3-d]pyrimidin-3(2H)-yl]cyclohexyl}-L-valinamide] | 0.398
20 | Cc1ccc(-c2cccc(-n3c(=O)n([C@H]4CC[C@@H](N)CC4)c(=O)c4cc(F)cnc43)c2)cc1 [Example 47, 3-(cis-4-aminocyclohexyl)-6-fluoro-1-(4′-methylbiphenyl-3-yl)pyrido[2,3-d]pyrimidine-2,4(1H,3H)-dione] | 2
21 | O=C(N[C@H]1CC[C@@H](n2c(=O)c3cc(F)cnc3n(-c3cccc(-c4ccccc4CN4CCOCC4)c3)c2=O)CC1)c1cn2cc(F)ccc2n1 [Example 19, 6-fluoro-N-{cis-4-[6-fluoro-1-[2′-(morpholin-4-ylmethyl)biphenyl-3-yl]-2,4-dioxo-1,4-dihydropyrido[2,3-d]pyrimidin-3(2H)-yl]cyclohexyl}imidazo[1,2-a]pyridine-2-carboxamide.] | 0.00316
